Source: the supplement of paper PMC10307832

How the values were obtained:
Experiment in all cases: relative viability (nuclei count vs DMSO), 5 days (fraction); higher = more cells survive
[1] = compound: CCc1c2c(nc3ccc(OC(=O)N4CCC(N5CCCCC5)CC4)cc13)-c1cc3c(c(=O)n1C2)COC(=O)[C@]3(O)CC [Irinotecan] + Cc1cc(Nc2cc(N3CCN(C)CC3)nc(Sc3ccc(NC(=O)C4CC4)cc3)n2)n[nH]1 [Tozasertib] (partner 0.1 µM)
Method in brief: (§1)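 Lung cancer cell lines in 1536-well plates got either a single drug or a fixed anchor-drug dose together with five library-drug doses (not always all listed) in √10 steps, by pin tool, on the day after seeding. Nuclei were counted after 5 days, and relative viability is the treated-to-vehicle ratio of nuclei counts. Values are medians of duplicate plates.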

[2] = compound: CC[C@@H](C)CNCC(=O)N1CCC2=C([C@@H]1COC3=CC=CC(=C3)C)C=CS2 [RU-SKI 43] + COc1cccc2cc(-c3nc([C@H]4CC[C@H](C(=O)O)CC4)n4ncnc(N)c34)[nH]c12 [OSI-027] (partner 0.5 µM)
Method in brief: as §1

[3] = compound: Cn1cc(-c2cnc3ccc4ccc(CS(=O)(=O)NCc5ccccn5)cc4c(=O)c3c2)cn1 [MK-8033] + C[C@@H](Oc1cc(-c2cnn(C3CCNCC3)c2)cnc1N)c1c(Cl)ccc(F)c1Cl [Crizotinib] (partner 1 µM)
Method in brief: as §1

[4] = compound: Cn1cc(-c2cnc3ccc4ccc(CS(=O)(=O)NCc5ccccn5)cc4c(=O)c3c2)cn1 [MK-8033] + O=C(CCCCCCC(=O)Nc1ccccc1)NO [Vorinostat] (partner 1 µM)
Method in brief: as §1

| Cell Line | relative viability ([1]; first compound 0.6325 µM) | relative viability ([1]; first compound 2 µM) | relative viability ([1]; first compound 6.325 µM) | relative viability ([1]; first compound 20 µM) | relative viability ([2]; first compound 0.1 µM) | relative viability ([2]; first compound 0.3162 µM) | relative viability ([2]; first compound 1 µM) | relative viability ([2]; first compound 3.162 µM) | relative viability ([2]; first compound 10 µM) | relative viability ([3]; first compound 0.02 µM) | relative viability ([3]; first compound 0.06325 µM) | relative viability ([3]; first compound 0.2 µM) | relative viability ([3]; first compound 0.6325 µM) | relative viability ([3]; first compound 2 µM) | relative viability ([4]; first compound 0.02 µM) | relative viability ([4]; first compound 0.06325 µM) | relative viability ([4]; first compound 0.2 µM) | relative viability ([4]; first compound 0.6325 µM) | relative viability ([4]; first compound 2 µM) |
| --- | --- | --- | --- | --- | --- | --- | --- | --- | --- | --- | --- | --- | --- | --- | --- | --- | --- | --- | --- |
| EMC-BAC-2 | 0.263 | 0.269 | 0.259 | 0.406 | 0.336 | 0.32 | 0.365 | 0.378 | 0.361 | 0.76 | 0.77 | 0.718 | 0.783 | 0.701 | 0.619 | 0.346 | 0.421 | 0.454 | 0.476 |
| ChaGo-K-1 | 0.216 | 0.205 | 0.193 | 0.218 | 0.658 | 0.632 | 0.646 | 0.579 | 0.744 | 1.11 | 1.02 | 1.11 | 1.1 | 0.726 | 0.769 | 0.74 | 0.729 | 0.685 | 0.687 |
| LXF-289 | 0.185 | 0.179 | 0.112 | 0.174 | 0.776 | 0.874 | 0.951 | 0.827 | 0.733 | 0.738 | 0.77 | 0.777 | 0.819 | 0.773 | 0.843 | 0.615 | 0.737 | 0.755 | 0.812 |
| HCC-827 | 0.318 | 0.307 | 0.249 | 0.175 | 0.73 | 0.94 | 0.889 | 0.783 | 0.736 | 0.925 |  | 0.955 | 0.874 | 0.885 | 1.1 |  | 0.8 | 0.907 | 0.959 |
| HCC-44 |  | 1.17 | 0.377 | 0.308 | 0.511 |  | 0.777 | 0.479 | 0.611 | 0.808 | 0.732 | 0.755 | 0.746 | 0.756 | 1.06 | 1.14 | 1.09 | 1.2 | 1.07 |
| NCI-H2023 | 0.355 | 0.408 | 0.205 | 0.104 | 0.442 | 0.455 | 0.465 | 0.413 | 0.372 | 0.674 | 0.559 | 0.554 | 0.554 | 0.586 | 0.857 | 0.44 | 0.583 | 0.515 | 0.491 |
| NCI-H1734 |  | 0.279 | 0.198 | 0.33 | 0.498 | 0.638 | 0.603 | 0.671 | 0.534 | 0.682 | 0.547 | 0.645 | 0.508 | 0.595 | 0.874 | 0.639 | 0.698 | 0.836 | 0.758 |
| PC-14 |  | 0.51 | 0.19 | 0.174 | 0.844 | 1.07 | 0.93 | 0.965 | 0.75 | 0.932 | 0.81 | 0.875 | 0.889 | 0.817 | 0.708 | 0.52 | 0.683 | 0.797 | 0.599 |
| NCI-H3122 | 0.461 | 0.339 | 0.2 | 0.0585 | 1.02 | 1.23 | 1.31 | 1.01 | 0.96 | 0.335 | 0.249 | 0.311 | 0.272 | 0.286 | 0.834 | 1.3 | 0.879 | 1.14 | 1.01 |
| SW 1573 | 0.152 | 0.311 | 0.183 | 0.155 | 0.634 | 0.797 | 0.682 | 0.741 | 0.611 | 0.798 | 0.743 | 0.752 | 0.416 | 0.695 | 0.836 | 0.681 | 0.7 | 0.729 | 0.667 |
| NCI-H2342 | 0.488 | 0.528 | 0.445 | 0.372 | 0.541 | 0.594 | 0.622 | 0.641 | 0.62 |  |  |  |  |  | 0.859 | 0.728 | 0.643 | 0.79 | 0.731 |
| HCC-15 |  | 0.332 | 0.164 | 0.151 | 0.733 | 0.805 | 0.75 | 0.803 | 0.625 | 0.778 | 0.796 | 0.762 | 0.816 | 0.808 | 0.898 | 0.767 | 0.752 | 0.738 | 0.798 |
| NCI-H1666 | 0.552 | 0.543 | 0.569 | 0.26 | 0.897 | 0.87 | 0.85 | 0.858 | 0.752 | 0.909 | 0.942 | 0.982 | 0.999 | 1.01 | 1.04 | 1.01 | 1.01 | 1.09 | 1.04 |
| NCI-H1792 |  |  |  |  | 0.682 | 1.05 | 0.969 | 0.939 | 0.707 | 1.02 | 0.959 | 0.982 | 0.828 | 1.03 |  |  |  |  |  |
| IA-LM |  |  |  |  |  |  |  |  |  | 0.739 | 0.667 | 0.948 | 0.667 | 0.899 | 0.828 | 0.976 | 0.938 | 1.01 | 0.965 |
| NCI-H1395 | 0.607 | 0.716 | 0.594 | 0.494 | 0.717 | 0.684 | 0.747 | 0.558 | 0.6 |  |  |  |  |  | 0.673 | 0.673 | 0.638 | 0.654 | 0.692 |
| NCI-H1793 |  | 0.345 | 0.217 | 0.219 | 0.257 | 0.21 | 0.348 | 0.28 | 0.257 |  |  |  |  |  | 0.675 |  | 0.559 | 0.713 | 0.618 |
| SW 900 | 0.379 | 0.528 | 0.439 | 0.485 | 0.684 | 0.595 | 0.782 | 0.604 | 0.53 |  |  |  |  |  | 0.593 | 0.394 | 0.377 | 0.541 | 0.348 |
| NCI-H1703 |  |  |  |  |  |  |  |  |  | 0.583 | 0.576 | 0.549 | 0.601 | 0.715 |  |  |  |  |  |
| NCI-H1299 |  |  |  |  |  |  |  |  |  | 0.956 | 0.925 | 0.92 | 0.946 | 0.971 |  |  |  |  |  |
